The source of these data is PubChem BioAssay (NCI).

Among the test systems are MOLT-4 leukemia; UO-31 renal; SK-OV-3 ovarian; EKVX NSCLC; MDA-MB-231 breast; NCI-H522 lung; SK-MEL-5 melanoma; NCI-H460 lung; HCC-2998 colon; SR leukemia.
Assay in all cases: inhibition of tumour cell growth, NCI panel, 48 h

Molecules are shown by their SMILES.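 Five compound concentrations were applied to cells in 96-well plates for 48 hours; endpoints were derived by simple linear interpolation of the resulting dose-response curve. The concentration for 50% growth inhibition is given as GI50. Definition used: TGI = concentration required for complete inhibition of growth.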

`CCOC(=O)CCC(NC(=O)c1ccc(Oc2nc3cc(N)cc(N)c3nc2-c2ccccc2)cc1)C(=O)OCC` (stereo not drawn): the GI50 is 39 µM in the experiment on MOLT-4 leukemia; 48.7 µM in the experiment on UO-31 renal; 27.9 µM with SK-OV-3 ovarian; 62 µM with EKVX NSCLC; 11.3 µM in the experiment on MDA-MB-231 breast; 27.5 µM in the experiment on NCI-H522 lung. Besides, the GI50 is 18 µM in the experiment on SK-MEL-5 melanoma and 96.2 µM in the experiment on NCI-H460 lung. In addition, the TGI in the experiment with MOLT-4 leukemia was greater than 100 µM; with UO-31 renal, greater than 100 µM; in the experiment on SK-OV-3 ovarian it was 97.7 µM; in the experiment with EKVX NSCLC it was greater than 100 µM; in the experiment with MDA-MB-231 breast it was 32.6 µM; in the experiment on NCI-H522 lung, greater than 100 µM. Also, the TGI in the experiment on SK-MEL-5 melanoma is 53.8 µM; with NCI-H460 lung, greater than 100 µM.
As for `O=C1OC(=O)c2c1cc1cc3c(cc1c2-c1ccc2c(c1)OCO2)OCO3`, the TGI in the experiment on MOLT-4 leukemia, in the experiment with UO-31 renal, with MDA-MB-231 breast, with NCI-H522 lung, in the experiment on HCC-2998 colon and in the experiment on SK-MEL-5 melanoma was greater than 100 µM in each case. In addition, in the experiment on NCI-H460 lung, the TGI is greater than 100 µM.
On to `Cc1cc(N)c2cc(NC(=O)/C=C\c3ccccc3Cl)ccc2n1`, for which the GI50 was 1.09 µM with MOLT-4 leukemia; 1.78 µM in the experiment on UO-31 renal; 1.85 µM with SK-OV-3 ovarian; 1.53 µM in the experiment with EKVX NSCLC; 1.21 µM in the experiment with MDA-MB-231 breast; 1.71 µM in the experiment with NCI-H522 lung. In addition, the GI50 in the experiment on HCC-2998 colon was 0.485 µM; with SK-MEL-5 melanoma, 1.46 µM; in the experiment on NCI-H460 lung, 1.19 µM. In addition, the TGI in the experiment on MOLT-4 leukemia turned out to be 2.54 µM; in the experiment with UO-31 renal, 3.22 µM; with SK-OV-3 ovarian, 3.27 µM; with EKVX NSCLC, 3.1 µM; in the experiment with MDA-MB-231 breast it was 2.47 µM; with NCI-H522 lung it was 3.29 µM. Besides, the TGI in the experiment on HCC-2998 colon stood at 1.74 µM; in the experiment on SK-MEL-5 melanoma, 2.8 µM; with NCI-H460 lung it was 2.7 µM.
`O=C1CC[C@@H]2[C@H]3CCC(=O)c4c3c(c3cccc(O)c3c4O)O[C@@]23C(=O)c2cccc(O)c2C(O)=C13`: the GI50 in the experiment with MOLT-4 leukemia, with UO-31 renal, with EKVX NSCLC, in the experiment with MDA-MB-231 breast, with NCI-H522 lung and in the experiment with SR leukemia was greater than 100 µM in each case. In addition, the GI50 with SK-MEL-5 melanoma and in the experiment with NCI-H460 lung was greater than 100 µM each time. Further, the TGI with MOLT-4 leukemia, in the experiment on UO-31 renal, in the experiment on EKVX NSCLC, with MDA-MB-231 breast, in the experiment on NCI-H522 lung and in the experiment on SR leukemia was greater than 100 µM each time. The TGI with SK-MEL-5 melanoma and in the experiment with NCI-H460 lung was greater than 100 µM throughout.
For the compound `CN(C)Cc1c[nH]c2nc[nH]c(=O)c12`, the TGI is 24.7 µM with MOLT-4 leukemia; greater than 100 µM in the experiment on UO-31 renal; greater than 100 µM in the experiment on SK-OV-3 ovarian; greater than 100 µM in the experiment with EKVX NSCLC; greater than 100 µM in the experiment on MDA-MB-231 breast; greater than 100 µM in the experiment with NCI-H522 lung. For the same compound, the results for the TGI in the experiment with SR leukemia, in the experiment with SK-MEL-5 melanoma and with NCI-H460 lung were 53.7 µM, greater than 100 µM and 61 µM, respectively.
In the case of `COc1cc(/C=C2\CC3C4CC=C5C[C@@H](N6CCCC6)CC[C@]5(C)C4CC[C@]3(C)[C@H]2OC(C)=O)ccc1OCCCn1ccnc1` (stereo partly drawn), the GI50 is 0.206 µM in the experiment with MOLT-4 leukemia; 2.01 µM with UO-31 renal; 1.28 µM with EKVX NSCLC; 0.404 µM in the experiment on MDA-MB-231 breast; 3.86 µM in the experiment with NCI-H522 lung; 0.178 µM with HCC-2998 colon. Moreover, the GI50 was 0.373 µM with SK-MEL-5 melanoma and 0.531 µM in the experiment on NCI-H460 lung. Also, the TGI was greater than 15.4 µM in the experiment on MOLT-4 leukemia; greater than 50 µM with UO-31 renal; 9.12 µM in the experiment on EKVX NSCLC; 1.01 µM in the experiment with MDA-MB-231 breast; greater than 27.5 µM in the experiment with NCI-H522 lung; 0.568 µM in the experiment with HCC-2998 colon. For the same compound, the TGI in the experiment on SK-MEL-5 melanoma was 0.79 µM; in the experiment with NCI-H460 lung, greater than 19.2 µM.
With `CC(C)(C)c1ccc(OCCCCCCCN2CCNCC2)cc1`, the GI50 with MOLT-4 leukemia was 1.7 µM; in the experiment on UO-31 renal, 1.43 µM; with SK-OV-3 ovarian it was 1.82 µM; with EKVX NSCLC, 3.04 µM; in the experiment on MDA-MB-231 breast, 1.31 µM; in the experiment with HCC-2998 colon it was 1.7 µM. In addition, the GI50 with SK-MEL-5 melanoma is 1.82 µM; in the experiment on NCI-H460 lung, 1.83 µM. Also, the TGI in the experiment with MOLT-4 leukemia turned out to be 3.71 µM; in the experiment with UO-31 renal, 3.31 µM; in the experiment on SK-OV-3 ovarian, 3.92 µM; in the experiment with EKVX NSCLC, 12.7 µM; in the experiment on MDA-MB-231 breast it was 3.02 µM; in the experiment on HCC-2998 colon, 3.22 µM. For the same compound, the results for the TGI in the experiment with SK-MEL-5 melanoma and in the experiment on NCI-H460 lung were 3.4 µM and 3.47 µM, respectively.
With `CC1Nc2ccccc2NC1C=C(C#N)C#N` (stereo not drawn), the TGI in the experiment on MOLT-4 leukemia was 24.6 µM; with UO-31 renal it was 28.3 µM; with SK-OV-3 ovarian it was 52.6 µM; in the experiment on EKVX NSCLC, 37.1 µM; in the experiment with NCI-H522 lung, 25.3 µM; in the experiment on SR leukemia, 22.4 µM. Also, the results for the TGI in the experiment on HCC-2998 colon, in the experiment on SK-MEL-5 melanoma and in the experiment on NCI-H460 lung were 32.8 µM, 32.4 µM and 42.5 µM, respectively.
Regarding `O=C(N/N=C/c1coc2ccc(Cl)cc2c1=O)c1cc(O)c(O)c(O)c1`, the GI50 in the experiment with MOLT-4 leukemia is 13.7 µM; with UO-31 renal it was 40 µM; in the experiment with SK-OV-3 ovarian it was greater than 100 µM; in the experiment on EKVX NSCLC it was 27.1 µM; with MDA-MB-231 breast, 19.3 µM; in the experiment on NCI-H522 lung it was 38.4 µM. Also, the GI50 with HCC-2998 colon was 15.9 µM; with SK-MEL-5 melanoma it was 11.6 µM; in the experiment with NCI-H460 lung, greater than 100 µM. The TGI is 61.6 µM with MOLT-4 leukemia; greater than 100 µM in the experiment with UO-31 renal; greater than 100 µM in the experiment on SK-OV-3 ovarian; greater than 100 µM with EKVX NSCLC; 45 µM in the experiment with MDA-MB-231 breast; greater than 100 µM with NCI-H522 lung. The TGI is 35.3 µM in the experiment on HCC-2998 colon, 34.2 µM in the experiment with SK-MEL-5 melanoma and greater than 100 µM with NCI-H460 lung.
For `CC1(C)CCOC(Sc2ccccc2)C1` (stereo not drawn), the TGI in the experiment on MOLT-4 leukemia, in the experiment on UO-31 renal, in the experiment with SK-OV-3 ovarian, with EKVX NSCLC, with NCI-H522 lung and in the experiment on SR leukemia was greater than 100 µM throughout. For the same compound, the values for the TGI in the experiment on HCC-2998 colon, with SK-MEL-5 melanoma and in the experiment with NCI-H460 lung were greater than 100 µM, 52.9 µM and greater than 100 µM, respectively.
Turning to `CN1C=C(C(N)=O)Cc2ccsc21`, the TGI in the experiment with MOLT-4 leukemia, in the experiment with UO-31 renal, in the experiment on SK-OV-3 ovarian, in the experiment with EKVX NSCLC, with NCI-H522 lung and with SR leukemia was greater than 100 µM throughout. In addition, the TGI in the experiment on HCC-2998 colon, with SK-MEL-5 melanoma and in the experiment with NCI-H460 lung was greater than 100 µM in each case.
